Measurements as given in patent US8577617B2, “Metabolic phenotyping” (priority 2002, dated 2013).
Where “and” joins values, the source holds several entries; their conditions need not be identical. Identical values can stand only once. Entries after “also recorded” stand apart in the source; their conditions may differ.

Experiments:
male Sprague-Dawley rats [1] = experiment: Clinical chemistry analysis of plasma after dosing galactosamine HCl; type: in vivo, rat; conditions: plasma 24 hours post-dosing
Method: (§1) At the time of dosing (at the start of day 1) the growing rats were each approximately 260 g in mass. Galactosamine (abbreviated GaIN) HCl (from Sigma, France) was dissolved in physiological saline and dosed by intraperitoneal injection at either 200 mg/kg or at 800 mg/kg; ten animals (nos. 101-110) received the low dose and ten animals (nos. 201-210) received the high dose. Ten control animals (nos. 1-10) received an oral dose of corn oil. Five of each group of ten rats were euthanased by means of CO2 on day 2 with the remainder being euthanased by the same technique on day 8. The early-euthanased rats were numbers 6-10, 106-110 and 206-210. The late-euthanased rats were numbers 1-5, 101-105 and 201-205. Blood was sampled from the orbital sinus, under isoflurane anaesthesia. Blood was sampled from all animals on day −3 and just prior to euthanasia on either day 2 or day 8. Following euthanasia each rat was sampled for histopathological examination with the sampling including taking ten liver samples from each rat (two from each liver lobe). The blood samples were collected into vials containing lithium heparin as anticoagulant and immediately centrifuged at approx. minus four degrees C. to separate plasma. A portion of each plasma sample was analysed at thirty degrees C. on an AU600 multiparametric clinical analyser (Olympus) for a range of clinical chemistry parameters including alanine aminotransferase (ALT) and aspartate aminotransferase (AST) amongst many others.

male Sprague-Dawley rats [2] = experiment: 1H NMR of post-dose urine after dosing galactosamine HCl (galactosamine excretion, endogenous metabolite changes, responder classification); type: in vivo, rat
Method: At the time of dosing (at the start of day 1) the growing rats were each approximately 260 g in mass. Galactosamine (abbreviated GaIN) HCl (from Sigma, France) was dissolved in physiological saline and dosed by intraperitoneal injection at either 200 mg/kg or at 800 mg/kg; ten animals (nos. 101-110) received the low dose and ten animals (nos. 201-210) received the high dose. Ten control animals (nos. 1-10) received an oral dose of corn oil.
Pre- and post-dose urine samples were collected for 7 hours daily into ice-cooled vessels containing sodium azide (0.100 ml of a 10% (w/v) solution of sodium azide in water) as an antibacterial preservative. There was an additional overnight urine collection on the day of dosing (from 7-24 hours post-dose). The urine collection apparatus was cleaned prior to each collection to minimise bacterial, food and faecal contamination. The urine samples were deep-frozen pending NMR analysis.
Urine samples were prepared for NMR analysis by mixing 400 Eli of urine with 200 μl of phosphate buffer (an 81:19 (v/v) mixture of 0.2 M Na2HPO4 and 0.2 M NaH2PO4; pH 7.4); if insufficient urine was available the shortfall was made up with purified water with a minimum of 200 μl of urine being used. The urine-buffer mixture was left to stand for 10 minutes at room temperature to enable buffering to take place and then centrifuged at 13,000 rpm for a further 10 minutes to remove suspended particulates. 500 μl of ‘clear’ buffered urine was transferred to an NMR tube and 50 μl of a TSP/D2O solution added. TSP (sodium 3-trimethylsilyl-[2,2,3,3-^2H4]-1-propionate) is a chemical shift reference compound (δ 0) used in the NMR experiment and the D2O provided a field/frequency lock for the NMR spectrometer. The concentration of the TSP/D2O solution was such as to give a final TSP concentration of 0.1 mM in the NMR tube. The NMR analyses were carried out at thirty degrees C. on a Bruker AMX 600 MHz NMR spectrometer with the NOESYPRESAT pulse sequence (Claridge, 1999) used to reduce the size of the water signal. The principal acquisition parameters were:
After acquisition, the NMR spectra were Fourier-transformed into 32768 data points following application of 0.3 Hz line-broadening by means of an exponential multiplication applied to the free induction decay signal. The spectra were phased to give an even baseline around the NMR signals and the chemical shift scale was set by assigning the value of δ 0 to the TSP peak. Prior to data-reduction, the baseline of each day −1 spectrum was moved to zero intensity using a straight-line baseline correction algorithm. All these spectral processing operations were carried out on a Silicon Graphics computer using the ‘xwinnmr’ software (Bruker GmBH).
On the basis of this visual examination, animals could be readily categorised as either (i) ‘responders’ or (ii) as ‘weak or non-responders’.

male Sprague-Dawley rats [3] = experiment: Histopathology of liver after dosing galactosamine HCl; type: in vivo, rat; conditions: for histopathological changes: 200 mg/kg i.p.
Source text: as §1, with “Thirty young adult age-matched male Sprague-Dawley rats were obtained from Charles River, France. After observation to ensure that they each appeared healthy they were placed in individual metabolism cages with free access to water and a standard commercial laboratory diet (diet AO4C from Usine d'Alimentation Rationnelle, Villemoisson-sur-Orge, France). The laboratory temperature was maintained at 20.+−−.2 degrees C. and the relative humidity at 60.±.20%. The laboratory air was filtered and changed 14 times per hour. A fixed ‘12 hours light-12 hours dark’ cycle was imposed. The study commenced after a short period of cage ‘acclimatisation’. At” for “At”

male Sprague-Dawley rats [4] = type: in vivo; conditions: 200 mg/kg i.p., individual animals 101-110
Method: Dosing was on the day designated as ‘day 1’ when the growing rats were each approximately 250 g in mass. Isoniazid (from Sigma, France) was dissolved in physiological saline and dosed by intraperitoneal injection at either 200 mg/kg or at 400 mg/kg; ten animals (nos. 101-110) received the low dose and ten animals (nos. 201-210) received the high dose. Ten control animals (nos. 1-10) received an intraperitoneal injection of saline.
It was intended that post-dose blood samples would be taken immediately before euthanasia with euthanasia being immediately followed by sampling for histopathology. As in Example 1, the intention was that five of each group of ten rats would be euthanased by means of CO2 at one day after dosing thereby providing early blood and histopathology samples; the remainder were to be euthanased by the same technique at seven days after dosing thereby providing late blood and histopathology samples. It was planned that the early-euthanased rats would be numbers 6-10, 106-110 and 206-210 whilst the late-euthanased rats would be numbers 1-5, 101-105 and 201-205. […] The urine samples were deep-frozen pending NMR analysis. […]

[5] = 200 mg/kg i.p., individual animals 106-110, hydrochloride
[6] = 800 mg/kg i.p., individual animals 206-210, hydrochloride
[7] = 200 mg/kg i.p., animals 101-105
[8] = 800 mg/kg i.p., animals 201-205, hydrochloride
[9] = 800 mg/kg i.p., day 2 and day 3, animals 201 and 202
[10] = 800 mg/kg i.p., day 3, animals 201 and 202
[11] = 800 mg/kg i.p., day 3, animals 201 and 202, hydrochloride

SMILES: Cl.N[C@H]1C(O)O[C@H](CO)[C@H](O)[C@@H]1O (stereo partly shown) [galactosamine HCl, galactosamine hydrochloride]
- GGT (γ-glutamyl transferase) (male Sprague-Dawley rats [1]; 200 mg/kg i.p., individual animals 106-110): 0 IU/L
- 5′-NT (5-nucleotidase) (male Sprague-Dawley rats [1]; [5]): 23 IU/L and 21 IU/L (2×) and 19 IU/L and 27 IU/L
- A/G (albumin/globulin ratio) (male Sprague-Dawley rats [1]; [5]): 1.3 and 1.4 (3×) and 1.5
- ALAT (alanine aminotransferase) (male Sprague-Dawley rats [1]; [5]): 43 IU/L and 46 IU/L and 49 IU/L and 38 IU/L and 47 IU/L
- ALB (albumin) (male Sprague-Dawley rats [1]; [5]): 33 g/L (3×) and 37 g/L and 34 g/L
- AP (alkaline phosphatase) (male Sprague-Dawley rats [1]; [5]): 606 IU/L and 495 IU/L and 566 IU/L and 697 IU/L and 637 IU/L
- ASAT (aspartate aminotransferase) (male Sprague-Dawley rats [1]; [5]): 107 IU/L and 84 IU/L and 73 IU/L and 67 IU/L and 75 IU/L
- BILI (bilirubin) (male Sprague-Dawley rats [1]; [5]): 0.09 mg/dL and 0.05 mg/dL and 0.11 mg/dL and 0.1 mg/dL and 0.12 mg/dL
- CHOL (total cholesterol) (male Sprague-Dawley rats [1]; [5]): 73 mg/dL and 60 mg/dL and 91 mg/dL and 72 mg/dL and 81 mg/dL
- CREA (creatinine) (male Sprague-Dawley rats [1]; [5]): 0.5 mg/dL (4×) and 0.4 mg/dL
- GLUC (glucose) (male Sprague-Dawley rats [1]; [5]): 173 mg/dL and 184 mg/dL and 167 mg/dL and 138 mg/dL and 182 mg/dL
- PROT (total protein) (male Sprague-Dawley rats [1]; [5]): 59 g/L and 56 g/L and 61 g/L and 58 g/L and 57 g/L
- TBA (total bile acids) (male Sprague-Dawley rats [1]; [5]): 48.0 μmol/L and 22.0 μmol/L and 29.0 μmol/L (2×) and 23.0 μmol/L
- TRIG (triglycerides) (male Sprague-Dawley rats [1]; [5]): 94 mg/dL and 158 mg/dL and 140 mg/dL and 109 mg/dL and 127 mg/dL
- UREA (urea) (male Sprague-Dawley rats [1]; [5]): 29 mg/dL and 40 mg/dL and 33 mg/dL and 28 mg/dL (2×)
- 5′-NT (5-nucleotidase) (male Sprague-Dawley rats [1]; [6]): 156 IU/L and 23 IU/L and 17 IU/L and 203 IU/L and 35 IU/L
- A/G (albumin/globulin ratio) (male Sprague-Dawley rats [1]; [6]): 1.7 and 2.1 and 1.5 and 2.4 and 1.8
- ALAT (alanine aminotransferase) (male Sprague-Dawley rats [1]; [6]): 2350 IU/L and 178 IU/L and 45 IU/L and 4300 IU/L and 479 IU/L
- ALB (albumin) (male Sprague-Dawley rats [1]; [6]): 32 g/L and 33 g/L (2×) and 34 g/L and 31 g/L
- AP (alkaline phosphatase) (male Sprague-Dawley rats [1]; [6]): 787 IU/L and 983 IU/L and 666 IU/L and 999 IU/L and 852 IU/L
- ASAT (aspartate aminotransferase) (male Sprague-Dawley rats [1]; [6]): 4320 IU/L and 264 IU/L and 79 IU/L and 10600 IU/L and 832 IU/L
- BILI (bilirubin) (male Sprague-Dawley rats [1]; [6]): 1.26 mg/dL and 0.06 mg/dL and 0.11 mg/dL and 1.37 mg/dL and 0.12 mg/dL
- CHOL (total cholesterol) (male Sprague-Dawley rats [1]; [6]): 60 mg/dL and 15 mg/dL and 61 mg/dL and 42 mg/dL and 46 mg/dL
- CREA (creatinine) (male Sprague-Dawley rats [1]; [6]): 0.4 mg/dL (4×) and 0.5 mg/dL
- GGT (γ-glutamyl transferase) (male Sprague-Dawley rats [1]; [6]): 2 IU/L and 0 IU/L (2×) and 5 IU/L and 1 IU/L
- GLUC (glucose) (male Sprague-Dawley rats [1]; [6]): 100 mg/dL and 162 mg/dL and 168 mg/dL and 80 mg/dL and 130 mg/dL
- PROT (total protein) (male Sprague-Dawley rats [1]; [6]): 51 g/L and 49 g/L and 56 g/L and 47 g/L and 48 g/L
- TBA (total bile acids) (male Sprague-Dawley rats [1]; [6]): 493 µmol/L and 43.0 µmol/L and 20.0 µmol/L and 1300 µmol/L and 65.0 µmol/L
- TRIG (triglycerides) (male Sprague-Dawley rats [1]; [6]): 38 mg/dL (2×) and 89 mg/dL and 148 mg/dL and 95 mg/dL
- UREA (urea) (male Sprague-Dawley rats [1]; [6]): 45 mg/dL and 24 mg/dL and 29 mg/dL and 40 mg/dL and 25 mg/dL
- urinary creatine (male Sprague-Dawley rats [2]; [7]): Creatine: no increase
- urinary taurine (male Sprague-Dawley rats [2]; [7]): instances of raised
- urinary 2-oxoglutarate (male Sprague-Dawley rats [2]; [8]): 2-Oxoglutarate: Animals 203-205 showed no obvious change and reduced levels on days 2 and 3 but very high levels on day 7.
- urinary taurine (male Sprague-Dawley rats [2]; [8]): increases; also recorded: Taurine: Animals 203-205 showed no clear change whilst; also recorded: animals 201 & 202 showed highly elevated levels
- urinary guanidinoacetic acid (GAA) (male Sprague-Dawley rats [2]; 800 mg/kg i.p., animals 201 and 202, hydrochloride): increases; also recorded: very much increased levels on day 3 and perhaps somewhat
- urinary betaine (male Sprague-Dawley rats [2]; 800 mg/kg i.p., day 2 and day 3, animals 201 & 202, hydrochloride): increases; also recorded: Betaine: appeared very clearly in the day 2 and day 3 samples
- urinary glucose (male Sprague-Dawley rats [2]; [9]): Glucose: appeared to be elevated in the day 2 and day 3
- urinary urocanic acid (male Sprague-Dawley rats [2]; [9]): Urocanic acid: appeared clearly in the day 2 and day 3
- urinary glutamate and glutamine (male Sprague-Dawley rats [2]; 800 mg/kg i.p., day 3, animal 201): Glutamate and glutamine were elevated in the day 3 urine
- urinary histidine (male Sprague-Dawley rats [2]; 800 mg/kg i.p., day 3, animal 201, hydrochloride): increased excretion
- urinary trimethylamine-N-oxide (TMAO) (male Sprague-Dawley rats [2]; 800 mg/kg i.p., day 3, animals 201 & 202, hydrochloride): decreases; also recorded: levels, TMAO had essentially disappeared from the day 3
- urinary bile acids (seen as C18 methyl) (male Sprague-Dawley rats [2]; [10]): Bile acids: clearly increased (seen as C18 methyl) in the day
- urinary threonine (male Sprague-Dawley rats [2]; [10]): Threonine: was very clearly elevated in the day 3 samples
- urinary creatine (male Sprague-Dawley rats [2]; [11]): increases; also recorded: Creatine: Only animals 201 and 202 showed a clear increase
- urinary hippurate (male Sprague-Dawley rats [2]; [11]): decreased excretion; also recorded: Hippurate: was depleted in the day 3 samples from animals
- Total amount of galactosamine excreted in the urine from 0-24 hours post-dosing (male Sprague-Dawley rats [2]; 800 mg/kg i.p., individual animals 201-210, hydrochloride): 40.0 mg and 26.2 mg and 0.4 mg and 0.1 mg and 0.3 mg and 14.9 mg and 8.4 mg and 2.3 mg and 28.2 mg and 30.5 mg
- histopathological changes (male Sprague-Dawley rats [3]; day 2): No differences
- histopathological changes (male Sprague-Dawley rats [3]; day 8): No differences
- animals with multifocal randomly scattered foci of hepatocellular necrosis (male Sprague-Dawley rats [3]; 800 mg/kg i.p., day 2): hepatocellular necrosis were present in 4/5
- severity of changes (hepatocellular necrosis) (male Sprague-Dawley rats [3]; 800 mg/kg i.p., day 2, individual animals 206-210, hydrochloride): 207 - mild and 206, 210 - marked and 209 - severe and 208 - none
- animals with minimal bile duct hyperplasia (male Sprague-Dawley rats [3]; 800 mg/kg i.p., day 8): Minimal bile duct hyperplasia was found in 2/5

SMILES: NNC(=O)c1ccncc1 [isoniazid]
- Premature Death? (male Sprague-Dawley rats [4]): No
